Experimental data taken from ChEMBL document CHEMBL1201862, “PubChem BioAssay data set” (2004).
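Tested at 5 concentrations; 48 h exposure; 96-well plates; endpoints linearly interpolated, else capped at highest concentration. At the GI50, growth is halved.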 The source made the active and inactive calls. Rule as the data show it: active = GI50 up to about 1.1 µM and inactive = higher.

Key:
Assay in all cases: NCI anticancer screen, dose series, 48 h
COLO 205 = test system: COLO 205
RXF 393 = test system: RXF 393
SN12C = test system: SN12C
HT-29 = test system: HT-29
A498 = test system: A498
SK-OV-3 = test system: SK-OV-3
OVCAR-4 = test system: OVCAR-4
EKVX = test system: EKVX
HCT-15 = test system: HCT-15
RPMI-8226 = test system: RPMI-8226
MCF7 = test system: MCF7
NCI-H226 = test system: NCI-H226
OVCAR-5 = test system: OVCAR-5
TK-10 = test system: TK-10
IGROV-1 = test system: IGROV-1
NCI-H460 = test system: NCI-H460
MDA-N = test system: MDA-N
U-251 = test system: U-251
SK-MEL-2 = test system: SK-MEL-2
T47D = test system: T47D

Row | SMILES | GI50 (COLO 205) | GI50 (RXF 393) | GI50 (SN12C) | GI50 (HT-29) | GI50 (A498) | GI50 (SK-OV-3) | GI50 (OVCAR-4) | GI50 (EKVX) | GI50 (HCT-15) | GI50 (RPMI-8226) | GI50 (MCF7) | GI50 (NCI-H226) | GI50 (OVCAR-5) | GI50 (TK-10) | GI50 (IGROV-1) | GI50 (NCI-H460) | GI50 (MDA-N) | GI50 (U-251) | GI50 (SK-MEL-2) | GI50 (T47D)
1 | CCCCCCCCCCCCCCCCC1=CC(=O)C=C(OC)C1=O | 55.6 µM (inactive) | 37 µM (inactive) | 44 µM (inactive) | > 100 µM (inactive) | 48.5 µM (inactive) | > 100 µM (inactive) | > 100 µM (inactive) | > 100 µM (inactive) | 66.8 µM | 91.2 µM (inactive) | > 100 µM (inactive) | > 100 µM (inactive) | > 100 µM (inactive) | > 100 µM (inactive) | > 100 µM (inactive) | 34.4 µM (inactive) | > 100 µM (inactive) | 32.5 µM (inactive) | > 100 µM (inactive) | 
2 | c1ccc(COc2ccc(CC3SCCCS3)cc2)cc1 | > 100 µM (inactive) |  |  | > 100 µM (inactive) |  |  | > 100 µM (inactive) | > 100 µM (inactive) | 67.3 µM | 50.2 µM (inactive) | > 100 µM (inactive) |  |  | > 100 µM (inactive) | 66.2 µM (inactive) | 65.8 µM (inactive) | > 100 µM (inactive) |  |  | 49.7 µM (inactive)
3 | CC(=O)OC(CCC1(C)OC1COc1ccc(CCNC(=O)C=C(C)C)cc1)C(C)(C)OC(C)=O (stereo not given) | 28.2 µM (inactive) | 13.5 µM (inactive) | > 100 µM (inactive) | 46 µM (inactive) | > 100 µM (inactive) | > 100 µM (inactive) | 23.7 µM (inactive) | 16.9 µM (inactive) | 24.9 µM | 13.1 µM (inactive) |  | > 57 µM (inactive) | > 100 µM (inactive) | > 100 µM (inactive) | 29.1 µM (inactive) | 25.6 µM (inactive) | 13.3 µM (inactive) | > 100 µM (inactive) | > 51.9 µM (inactive) | 16.6 µM (inactive)
4 | C/C=C(/C)C(=O)O[C@@H]1c2c(C)coc2C[C@H]2CC[C@H](O)[C@H](C)[C@]21C | > 100 µM (inactive) | 27 µM (inactive) | 31.3 µM (inactive) | 47.1 µM (inactive) |  | > 100 µM (inactive) | 39.4 µM (inactive) | > 100 µM (inactive) | 78.5 µM | 31.3 µM (inactive) | 26.3 µM (inactive) | 52.1 µM (inactive) | > 100 µM (inactive) | 64.6 µM (inactive) | 43.3 µM (inactive) | > 100 µM (inactive) | 50 µM (inactive) | > 100 µM (inactive) |  | 68.9 µM (inactive)
5 | CC1(C)CCC2=C(O1)c1ccccc1/C(=N/c1ccc([N+](=O)[O-])cc1)C2=O |  | 16.5 µM (inactive) |  | 12.7 µM (inactive) | 18.7 µM (inactive) | 17.7 µM (inactive) | 15.1 µM (inactive) | 16.4 µM (inactive) | 31 µM |  | 13.2 µM (inactive) | 12.4 µM (inactive) |  | 18.6 µM (inactive) | 51.1 µM (inactive) | 15.5 µM (inactive) | 14.9 µM (inactive) | 14.4 µM (inactive) | 16.1 µM (inactive) | 11.8 µM (inactive)
6 | Nc1ccc(Oc2ccc(C3(c4ccc(Oc5ccc(N)cc5)cc4)C4CC5C6CC7CC5C3C(C7)C6C4)cc2)cc1 | 42.4 µM (inactive) | 5.4 µM (inactive) | 12.1 µM (inactive) | 0.774 µM (active) | 4.01 µM (inactive) |  | 18.8 µM (inactive) | 27 µM (inactive) | 20.1 µM | 14.8 µM (inactive) | 7.53 µM (inactive) | > 55.8 µM (inactive) | > 100 µM (inactive) | > 78 µM (inactive) | > 52.1 µM (inactive) | 21.1 µM (inactive) | 14.5 µM (inactive) | 1.03 µM (active) | > 100 µM (inactive) | 
7 | CCOC(=O)C1(C(=O)OCC)COS(=O)OC1 | 23.8 µM (inactive) | 18.3 µM (inactive) | > 100 µM (inactive) | > 100 µM (inactive) | > 100 µM (inactive) | > 100 µM (inactive) | 20.7 µM (inactive) |  | 19.2 µM |  | 19.1 µM (inactive) | 20.8 µM (inactive) |  | > 100 µM (inactive) |  | 21.3 µM (inactive) | 35.5 µM (inactive) | > 100 µM (inactive) |  | 19.9 µM (inactive)
8 | O=C(Nc1nc(C23CC4CC(CC(C4)C2)C3)cs1)c1cc2ccc(O)cc2oc1=O | 5.36 µM (inactive) | 16.4 µM (inactive) | 11.2 µM (inactive) | 14.4 µM (inactive) | 10.7 µM (inactive) |  | 8.26 µM (inactive) | 13.2 µM (inactive) | 4.46 µM | 5.35 µM (inactive) | 14.1 µM (inactive) | 18 µM (inactive) | 21 µM (inactive) | 26.8 µM (inactive) | 7.41 µM (inactive) | 6.5 µM (inactive) | 14 µM (inactive) | 12.8 µM (inactive) |  | 
9 | C[n+]1c2ccccc2c(C(=O)Nc2ccc(S(=O)(=O)N=C(N)N)cc2)c2ccccc21 | > 100 µM (inactive) |  | > 100 µM (inactive) | > 100 µM (inactive) | > 100 µM (inactive) | > 100 µM (inactive) | > 100 µM (inactive) | > 100 µM (inactive) | > 100 µM | > 100 µM (inactive) | > 100 µM (inactive) | > 100 µM (inactive) | > 100 µM (inactive) | > 100 µM (inactive) | 35.6 µM (inactive) | > 100 µM (inactive) | > 100 µM (inactive) | > 100 µM (inactive) | > 100 µM (inactive) | > 100 µM (inactive)
10 | COC(=O)CN(CC(=O)NCCCBr)C1CCCCC1N(CC(=O)OC)CC(=O)OC (stereo not given) | > 100 µM (inactive) |  | > 100 µM (inactive) | > 100 µM (inactive) | > 100 µM (inactive) | 32.3 µM (inactive) | > 100 µM (inactive) | > 100 µM (inactive) | > 100 µM | > 100 µM (inactive) | > 100 µM (inactive) | > 100 µM (inactive) | > 100 µM (inactive) | > 100 µM (inactive) | > 100 µM (inactive) | > 100 µM (inactive) | > 100 µM (inactive) | > 100 µM (inactive) | > 100 µM (inactive) | > 100 µM (inactive)
11 | Cc1ccc(C2=Nc3c(N)nc(N)nc3NC(c3ccccc3)C2)cc1 (stereo not given) |  | 7.36 µM (inactive) | 12.2 µM (inactive) | 4.05 µM (inactive) |  | 12.5 µM (inactive) | 14.2 µM (inactive) | 12.4 µM (inactive) | 3.1 µM | 4.84 µM (inactive) | 8.77 µM (inactive) | 14.4 µM (inactive) | 18 µM (inactive) | 16.9 µM (inactive) | 5.36 µM (inactive) |  | 2.12 µM (inactive) | 12.8 µM (inactive) |  | 13.1 µM (inactive)
12 | CCOC(=O)CC1CCN(C(=O)c2ccccc2)C2Cc3c([nH]c4ccccc34)C12C[N+](=O)[O-] (stereo not given) | 61 µM (inactive) | 77.1 µM (inactive) | > 100 µM (inactive) | 62.2 µM (inactive) | > 100 µM (inactive) | > 100 µM (inactive) | > 100 µM (inactive) | > 100 µM (inactive) | 95.7 µM |  | 41 µM (inactive) | > 100 µM (inactive) | > 100 µM (inactive) | > 100 µM (inactive) | 58.7 µM (inactive) | 65.6 µM (inactive) | > 100 µM (inactive) | 78.3 µM (inactive) | > 100 µM (inactive) | 54.3 µM (inactive)
13 | NC(CCCCP(=O)(O)O)C(=O)O (stereo not given) | > 100 µM (inactive) | > 100 µM (inactive) | > 100 µM (inactive) | > 100 µM (inactive) |  | > 100 µM (inactive) | > 100 µM (inactive) | > 100 µM (inactive) | > 100 µM | > 100 µM (inactive) |  |  | > 100 µM (inactive) | > 100 µM (inactive) | > 100 µM (inactive) | > 100 µM (inactive) | > 100 µM (inactive) | > 100 µM (inactive) | > 100 µM (inactive) | > 100 µM (inactive)
14 | O=C1CSSCC(=O)Nc2ccccc2N1 | > 100 µM (inactive) | > 100 µM (inactive) | > 100 µM (inactive) | > 100 µM (inactive) | > 100 µM (inactive) | > 100 µM (inactive) | > 100 µM (inactive) | > 100 µM (inactive) | > 100 µM | > 100 µM (inactive) |  | > 100 µM (inactive) | > 100 µM (inactive) | > 100 µM (inactive) | > 100 µM (inactive) | > 100 µM (inactive) | > 100 µM (inactive) | > 100 µM (inactive) | > 100 µM (inactive) | > 100 µM (inactive)
15 | CCc1nnc(-n2c(C)nc3cc(Cl)ccc3c2=O)s1 | 24.4 µM (inactive) | 47.3 µM (inactive) | 34.2 µM (inactive) | 35.2 µM (inactive) | 39.9 µM (inactive) | 38.4 µM (inactive) | 28.8 µM (inactive) | 49.2 µM (inactive) | 44.1 µM |  | 31.9 µM (inactive) | 43.1 µM (inactive) | > 100 µM (inactive) | 40.9 µM (inactive) | 40.7 µM (inactive) | 40.5 µM (inactive) | 13.3 µM (inactive) | 42.7 µM (inactive) |  | 27.9 µM (inactive)
16 | CC(=O)CCC[C@H](C)[C@@H](O)[C@@H]1O[C@H]([C@@]2(C)CCC(=O)O2)C[C@H]1C(=O)O | > 100 µM (inactive) | > 100 µM (inactive) | > 100 µM (inactive) | > 100 µM (inactive) |  | > 100 µM (inactive) | > 100 µM (inactive) | > 100 µM (inactive) | > 100 µM | > 100 µM (inactive) | > 100 µM (inactive) | > 100 µM (inactive) | > 100 µM (inactive) | > 100 µM (inactive) | > 100 µM (inactive) | > 100 µM (inactive) | > 100 µM (inactive) | > 100 µM (inactive) | > 100 µM (inactive) | > 100 µM (inactive)
